Measured values as given in patent US20230040770A1, “HETEROCYCLIC COMPOUND AND USE THEREOF” (TAKEDA PHARMACEUTICAL COMPANY LIMITED, priority 2019, published 2023).

Target: T1, human orexin type 2 receptor (Homo sapiens, UniProt O43614)
T1 construct: expressed in transfected cells
T1 sequence (O43614 1-444): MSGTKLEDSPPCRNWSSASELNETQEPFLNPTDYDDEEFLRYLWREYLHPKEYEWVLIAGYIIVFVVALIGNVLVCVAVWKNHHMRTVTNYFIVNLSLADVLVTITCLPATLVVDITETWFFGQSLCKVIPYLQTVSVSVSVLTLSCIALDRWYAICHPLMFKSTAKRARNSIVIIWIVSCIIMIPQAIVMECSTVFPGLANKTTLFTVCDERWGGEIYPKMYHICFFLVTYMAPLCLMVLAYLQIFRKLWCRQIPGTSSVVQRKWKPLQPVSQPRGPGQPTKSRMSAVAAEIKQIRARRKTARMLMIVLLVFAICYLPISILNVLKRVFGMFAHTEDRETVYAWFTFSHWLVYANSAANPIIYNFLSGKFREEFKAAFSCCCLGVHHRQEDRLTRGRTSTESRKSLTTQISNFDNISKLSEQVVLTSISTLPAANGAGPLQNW
Assay: Measurement of orexin type 2 receptor agonist activity (calcium indicator fluorescence, CHO cells forcibly expressing human OX2 receptor)
Format: cell-based
Details: compound at 3 μM; 0% = DMSO, 100% = orexin A (human) 10 nM
In short: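 CHO-dhfr cells stably expressing human OX2R, loaded with Fluo-4 AM (30 min 37 °C, then 30 min RT), then given test compound. Calcium fluorescence read by FDSS over ~2 min. Activity (%) scaled from DMSO (0%) to 10 nM final orexin A (100%).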

In order of rising “OX2R agonist activity (3 μM, %)” value:
1. CCS(=O)(=O)N[C@H]1[C@@H](F)CN(C(=O)C23CC(C2)C3)[C@H]1Cc1cccc(-c2cc(F)ccc2F)c1F [Example 306, N-{(2S,3R,4S)-1-(bicyclo[1.1.1]pentane-1-carbonyl)-4-fluoro-2-[(2,2′,5′-trifluoro[1,1′-biphenyl]-3-yl)methyl]pyrrolidin-3-yl}ethanesulfonamide]  89%
2. CCS(=O)(=O)N[C@H]1[C@@H](F)CN(C(=O)C23CC(C2)C3)[C@H]1Cc1cccc(-c2ccccc2)c1F [Example 308, N-{(2S,3R,4S)-1-(bicyclo[1.1.1]pentane-1-carbonyl)-4-fluoro-2-[(2-fluoro[1,1′-biphenyl]-3-yl)methyl]pyrrolidin-3-yl}ethanesulfonamide]  94%
3. CCS(=O)(=O)N[C@H]1[C@@H](F)CN(C(=O)N(C)C)[C@H]1Cc1cccc(-c2ccccc2)c1F [Example 295, (2S,3R,4S)-3-[(ethanesulfonyl)amino]-4-fluoro-2-[(2-fluoro[1,1′-biphenyl]-3-yl)methyl]-N,N-dimethylpyrrolidine-1-carboxamide]  95%
4. CCS(=O)(=O)N[C@H]1[C@@H](F)CN(C(=O)C(C)C)[C@H]1Cc1cccc(-c2cccc(F)c2F)c1F [Example 297, N-{(2S,3R,4S)-4-fluoro-1-(2-methylpropanoyl)-2-[(2,2′,3′-trifluoro[1,1′-biphenyl]-3-yl)methyl]pyrrolidin-3-yl}ethanesulfonamide]  95%
5. CCS(=O)(=O)N[C@H]1[C@@H](F)CN(C(=O)N(C)C)[C@H]1Cc1cccc(-c2cc(F)ccc2F)c1F [Example 294, (2S,3R,4S)-3-[(ethanesulfonyl)amino]-4-fluoro-N,N-dimethyl-2-[(2,2′,5′-trifluoro[1,1′-biphenyl]-3-yl)methyl]pyrrolidine-1-carboxamide]  96%
6. CCS(=O)(=O)N[C@H]1[C@@H](F)CN(C(=O)C(C)C)[C@H]1Cc1cccc(-c2cc(F)cc(F)c2)c1F [Example 296, N-{(2S,3R,4S)-4-fluoro-1-(2-methylpropanoyl)-2-[(2,3′,5′-trifluoro[1,1′-biphenyl]-3-yl)methyl]pyrrolidin-3-yl}ethanesulfonamide]  96%
7. CCS(=O)(=O)N[C@H]1[C@@H](F)CN(C(=O)C(C)C)[C@H]1Cc1cccc(-c2cccc(Cl)c2)c1F [Example 298, N-[(2S,3R,4S)-2-[(3′-chloro-2-fluoro[1,1′-biphenyl]-3-yl)methyl]-4-fluoro-1-(2-methylpropanoyl)pyrrolidin-3-yl]ethanesulfonamide]  96%
8. CCS(=O)(=O)N[C@H]1[C@@H](F)CN(C(=O)C2CCO2)[C@H]1Cc1cccc(-c2cc(F)cc(F)c2)c1F (stereo partly drawn) [Example 304, N-{(2S,3R,4S)-4-fluoro-1-(oxetane-2-carbonyl)-2-[(2,3′,5′-trifluoro[1,1′-biphenyl]-3-yl)methyl]pyrrolidin-3-yl}ethanesulfonamide]  99%
9. CCS(=O)(=O)N[C@H]1[C@@H](F)CN(C(=O)C2CCO2)[C@H]1Cc1cccc(-c2cccc(F)c2F)c1F (stereo partly drawn) [Example 307, N-{(2S,3R,4S)-4-fluoro-1-(oxetane-2-carbonyl)-2-[(2,2′,3′-trifluoro[1,1′-biphenyl]-3-yl)methyl]pyrrolidin-3-yl}ethanesulfonamide]  100%
10. CCS(=O)(=O)N[C@H]1[C@@H](F)CN(C(=O)C2CCO2)[C@H]1Cc1cccc(-c2cc(F)cc(F)c2)c1F (stereo partly drawn) [Example 305, N-{(2S,3R,4S)-4-fluoro-1-(oxetane-2-carbonyl)-2-[(2,3′,5′-trifluoro[1,1′-biphenyl]-3-yl)methyl]pyrrolidin-3-yl}ethanesulfonamide]  103%
11. CC(C)C(=O)N1C[C@H](F)[C@H](NS(C)(=O)=O)[C@@H]1Cc1cccc(-c2cccc(F)c2F)c1F [Example 314, N-{(2S,3R,4S)-4-fluoro-1-(2-methylpropanoyl)-2-[(2,2′,3′-trifluoro[1,1′-biphenyl]-3-yl)methyl]pyrrolidin-3-yl}methanesufonamide]  109%
